For data set [1] the following is noted: from U.S. Pat. No. 4,123,530; cited from earlier work.
The test system of data set [2] is Duodenal from cystamine experimental ulcer. Kind of data set: antiulcer activity, duodenal ulcer from cystamine. Type of data set: in vivo. As to conditions: rat, i.d. An excerpt:
(§1) The antiulcer activity has been tested on the rat for different types of experimental ulcer. The obtained therefrom is in Table 2.

Data set [3] in a line: buffering effect, HCl titration in vitro. Type of data set: physicochemical. As to conditions: 4.6 g sample in 400 ml 0.015 N HCl, 37° C., 0.1 N HCl at 1 ml/minute; minimum requirement. How it is done:
Buffering effect: to 4.6 g of the sample, in a 1000 ml beaker, 400 ml of 0.015 N HCl are added, while keeping the temperature at 37° C. (thermostat). The pH is measured after 30 minutes, while controlling that it be maintained within 4.8.div.5.0. Then, by means of a burette, 0.1 N HCl is introduced at a rate of 1 ml/minute, to achieve a pH of 3.0. 165 ml of 0.1N HCl must be consumed at the very least.

Data set [4] concerns Reserpine experimental ulcer. As to the kind of experiment: antiulcer activity, reserpine ulcer. The format is in vivo. As to conditions: rat, os.
Source text: as §1

For another data set, the system named is gastric hyperacidity. As to the kind of experiment: buffering activity (neutralizing action for gastric hyperacidity). As to conditions: rat, os. The format is in vivo.
Data set [5] has as its system Immobilization experimental ulcer. Kind of data set: antiulcer activity, immobilization ulcer. As to conditions: rat, os. The format is in vivo.
Source text: as §1

The subject of another data set is mouse. Kind of data set: acute toxicity per os, mouse. Type of data set: in vivo. As to conditions: fiduciary limits (6646.4-5862.2). An excerpt:
(§2) The acute toxicity of the complex salt of dihydroxy-aluminum-gluconate of N-cyclohexyl-piperazino acetamide is checked by the usual pharmacotoxicologic testing on the rat and mouse per os, the results of which are given in the following table.

Another data set relates to rat. As to the kind of experiment: acute toxicity per os, rat. The format is in vivo.
Source text: as §2

Another data set relates to Fast experimental ulcer. As to the kind of experiment: antiulcer activity, fast ulcer. The format is in vivo. As to conditions: rat, os.
Source text: as §1

The test system of data set [6] is Phenylbutazone + hystamine experimental ulcer. Kind of data set: antiulcer activity, phenylbutazone + hystamine ulcer. Type of data set: in vivo. As to conditions: rat, os.
Source text: as §1

For a further data set, the system named is Shay experimental ulcer. Kind of data set: antiulcer activity, Shay ulcer. Type of data set: in vivo. As to conditions: rat, i.d.
Source text: as §1

The next data set is described as follows: antisecretive activity. As to conditions: rat, os. The format is in vivo.
Data set [7] concerns From indomethacin experimental ulcer. As to the kind of experiment: antiulcer activity, ulcer from indomethacin. As to conditions: rat, os. The format is in vivo.
Source text: as §1

For `CC1CCC(NC(=O)CN2CCNCC2)CC1` (stereo not drawn) [N-4-methyl-cyclohexyl-1-piperazinylacetamide], the “antisecretive and antiulcer activity” value in data set [1] is on record as “considerable”.

Turning to `O=C(CN1CCNCC1)NC1CCCCC1` [N-cyclohexyl-1-piperaziniylacetamide], in data set [1], the “antisecretive and antiulcer activity” value is recorded as “considerable”.

In general, LD50 refers to the dose expected to kill half of the subjects tested. On to “Dihydroxy-aluminate-gluconate of N- cyclohexyl-1-piperazino-acetamide”, for which the “ED50 (antiulcer)” value stood at 270 mg/kg in [2]; 480 mg/kg in [4]; 420 mg/kg in data set [5]; 350 mg/kg with Fast experimental ulcer; 150 mg/kg in [6]; 360 mg/kg in the data set with Shay experimental ulcer. Besides, the “ED50 (antiulcer)” value in data set [7] is 420 mg/kg. In data set [3], the “0.1N HCl consumed to achieve a pH of 3.0” value is listed as at least 165 ml. The “ED50 (buffering activity)” value in the data set on gastric hyperacidity was determined as 156 mg/kg. Further, the LD50 in the data set with mouse is recorded as 6241.9 mg/kg; in the data set on rat (rat, os, fiduciary limits (8447.4-5264.6)), 6668.4 mg/kg. Further, the toxicity result in the data set with rat (rat and mouse per os, overall statement) was “very low”. For the same molecule, the “ED50 (antisecretive activity)” value in the data set “antisecretive activity” is 330 mg/kg.

(Values after patent publication US4495186A, “Organometal complexes of N-cyclohexyl-piperazino acetamides or propionamides, preparation and use thereof as antiulcer-antisecretive-buffering drugs” (Camillo Corvi S.p.A., priority 1982, dated 1985).)
